This is an account of results in patent US20190119282A1, “IMIDAZOPYRIDAZINES USEFUL AS INHIBITORS OF THE PAR-2 SIGNALING PATHWAY” (Vertex Pharmaceuticals Incorporated, priority 2013, published 2019).

In test [1] the target is T1, PAR2 (HT-29 cells, SLIGKV activation) (Homo sapiens, UniProt P55085).
T1 construct: host or cells: HT-29 cells
T1 sequence (P55085 26-397): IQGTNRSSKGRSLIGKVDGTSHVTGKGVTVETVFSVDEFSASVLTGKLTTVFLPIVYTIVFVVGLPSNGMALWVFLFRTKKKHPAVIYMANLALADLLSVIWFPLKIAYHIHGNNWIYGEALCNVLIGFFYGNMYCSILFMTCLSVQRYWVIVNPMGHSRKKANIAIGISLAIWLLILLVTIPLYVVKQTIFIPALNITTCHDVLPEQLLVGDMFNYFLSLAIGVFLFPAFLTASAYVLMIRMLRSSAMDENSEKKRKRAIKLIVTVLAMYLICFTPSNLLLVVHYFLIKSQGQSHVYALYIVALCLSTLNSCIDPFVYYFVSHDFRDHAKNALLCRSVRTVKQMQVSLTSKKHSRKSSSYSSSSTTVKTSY
Briefly: Ca FLIPR TETRA assay, ANTAGONIST mode, stimulation with 8 μM SLIGKV. It is filed as cell-based. The following applies: HT-29 cells, antagonist mode, stimulation with 8 μM SLIGKV. Put shortly:
(§1)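 HT-29 cells in 1% FBS/McCoy's overnight, loaded with Calcium 5 dye; compounds added and read first for intrinsic Ca2+ activation, then incubated 30 min at r.t. Antagonism read on FLIPR Tetra after stimulation with final 8 μM SLIGKV, 3.1 U/mL trypsin, 1 U/mL thrombin or 0.6 μM UTP.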

Test [2] deals with T2, PAR2 (HT-29 cells, trypsin activation) (Homo sapiens, UniProt P55085).
T2 construct: host or cells: HT-29 cells
T2 sequence (P55085 26-397): T1 sequence (P55085 26-397)
Briefly: Ca FLIPR TETRA assay, ANTAGONIST mode, stimulation with 3.1 U/mL trypsin. Format: cell-based. As to conditions: HT-29 cells, antagonist mode, stimulation with 3.1 U/mL trypsin. The method, boiled down:
as §1

Test [3] deals with Thrombin-stimulated Ca2+ response in HT-29 cells. Briefly: Ca FLIPR TETRA assay, ANTAGONIST mode, stimulation with 1 U/mL Thrombin. The following applies: Homo sapiens; HT-29 cells, antagonist mode, stimulation with 1 U/mL Thrombin. It is filed as cell-based, human. The method, boiled down: as §1
For test [4], the system named is UTP-stimulated Ca2+ response in HT-29 cells. Briefly: Ca FLIPR TETRA assay, ANTAGONIST mode, stimulation with 0.6 μM UTP. Format: cell-based, human. As to conditions: Homo sapiens; HT-29 cells, antagonist mode, stimulation with 0.6 μM UTP. The method, boiled down:
as §1

As a reminder, the IC50 is the concentration at which inhibition is half-maximal. As for `CC(C)(C)c1cc(-c2ccc(F)cc2)nn2cc(C(=O)N3CCNC(=O)C34CCCC4)nc12` [Compound I-462, 6-(8-(tert-butyl)-6-(4-fluorophenyl)imidazo[1,2-b]pyridazine-2-carbonyl)-6,9-diazaspiro[4.5]decan-10-one], the IC50 in test [1] is 2.2 nM; in test [2], 3.7 nM; in test [3], over 1000 nM; in test [4], over 1000 nM.

Turning to `CC(C)(C)c1cc(-c2ccc(C(F)(F)F)cc2)nn2cc(C(=O)N3CCN(C(=O)[C@H]4C[C@@](C)(O)C4)CC3(C)C)nc12` [Compound I-463], the IC50 in test [1] was 1.8 nM; in test [2] it was 2.7 nM; in test [3], over 1000 nM; in test [4], over 1000 nM.

Consider `CC(C)(C)c1cc(-c2ccc(F)c(Cl)c2)nn2cc(C(=O)N3CCN(C(=O)c4ncccn4)CC3(C)C)nc12` [Compound I-464], for which the IC50 in test [1] is 1.2 nM; in test [2] it was 2.2 nM; in test [3] it was over 1000 nM; in test [4], over 1000 nM.

In the case of `Cc1nnc(C(=O)N2CCN(C(=O)c3cn4nc(-c5ccc(F)c(Cl)c5)cc(C(C)(C)C)c4n3)C(C)(C)C2)o1` [Compound I-465], the IC50 in test [1] was 1.8 nM; in test [2] it was 3.7 nM; in test [3], over 1000 nM; in test [4], over 1000 nM.

Take `Cc1cc(C(=O)N2CCN(C(=O)c3cn4nc(-c5ccc(F)c(Cl)c5)cc(C(C)(C)C)c4n3)C(C)(C)C2)[nH]n1` [Compound I-466]: the IC50 in test [1] is 0.7 nM; in test [2], 1.9 nM; in test [3], over 1000 nM; in test [4], over 1000 nM.

As to `Cc1ncc(C(=O)N2CCN(C(=O)c3cn4nc(-c5ccc(F)c(Cl)c5)cc(C(C)(C)C)c4n3)C(C)(C)C2)[nH]1` [Compound I-467], the IC50 is 0.9 nM in test [1], 2 nM in test [2], over 1000 nM in test [3] and over 1000 nM in test [4].

As for `Cc1n[nH]c(C(=O)N2CCN(C(=O)c3cn4nc(-c5ccc(F)c(Cl)c5)cc(C(C)(C)C)c4n3)C(C)(C)C2)n1` [Compound I-468], the IC50 in test [1] came out at 0.7 nM; in test [2] it was 1.2 nM; in test [3], 3240 nM; in test [4] it was 2120 nM.

In the case of `CC(C)(C)c1cc(-c2ccc(Cl)c(F)c2)nn2cc(C(=O)N3CCN(C(=O)[C@H]4C[C@@](C)(O)C4)CC3(C)C)nc12` [Compound I-469], the IC50 turned out to be 0.2 nM in test [1], 0.2 nM in test [2], 8840 nM in test [3] and 11000 nM in test [4].

Regarding `Cc1cc(-c2cc(C(C)C)c3nc(C(=O)N4CCN(CO)C(=O)C4(C)C)cn3n2)ccc1F` [Compound I-470], the IC50 in test [1] is 25.7 nM; in test [2], 31.7 nM; in test [3], over 1000 nM; in test [4], over 1000 nM.

With `CC(C)(C)c1cc(-c2ccc(F)cc2)nn2cc(C(=O)N3CCN(c4cc[nH]n4)C(=O)C3(C)C)nc12` [Compound I-471], the IC50 in test [1] is 0.8 nM; in test [2], 1.6 nM; in test [3] it was 905 nM; in test [4] it was over 1000 nM.

On to `CC(C)(C)c1cc(-c2ccc(F)cc2F)nn2cc(C(=O)N3CCNC(=O)C3(C)C)nc12` [Compound I-472], for which the IC50 is 6.2 nM in test [1], 13 nM in test [2], over 1000 nM in test [3] and 820 nM in test [4].

For `CC(C)(C)c1cc(-c2ccccc2F)nn2cc(C(=O)N3CCNC(=O)C3(C)C)nc12` [Compound I-473], the IC50 was determined as 15 nM in test [1], 25.5 nM in test [2], 475 nM in test [3] and 390 nM in test [4].

For `CC(C)(C)c1cc(C2CCC(F)(F)CC2)nn2cc(C(=O)N3CCN(c4cc[nH]n4)C(=O)C3(C)C)nc12` [Compound I-474], the IC50 in test [1] was 2.4 nM; in test [2] it was 20 nM; in test [3], over 1000 nM; in test [4], over 1000 nM.

Take `Cc1n[nH]c(C(=O)N2CCN(C(=O)c3cn4nc(-c5ccc(F)cc5)cc(C(C)C)c4n3)C(C)(C)C2)n1` [Compound I-475]: the IC50 is 3.8 nM in test [1], 7.1 nM in test [2], 10300 nM in test [3] and 13700 nM in test [4].

Take `CC(C)c1cc(-c2ccc(F)c(C3CC3)c2)nn2cc(C(=O)N3CCNC(=O)C3(C)C)nc12` [Compound I-476]: the IC50 was 660 nM in test [1], 965 nM in test [2], over 1000 nM in test [3] and over 1000 nM in test [4].

In the case of `CC(C)c1cc(-c2ccc(F)cc2F)nn2cc(C(=O)N3CCNC(=O)C3(C)C)nc12` [Compound I-477], the 50% inhibitory concentration (IC50) in test [1] was 43 nM; in test [2] it was 93 nM; in test [3], over 1000 nM; in test [4] it was over 1000 nM.

Regarding `CC(C)c1cc(-c2ccccc2F)nn2cc(C(=O)N3CCNC(=O)C3(C)C)nc12` [Compound I-479], the IC50 in test [1] was 155 nM; in test [2] it was 250 nM; in test [3] it was over 1000 nM; in test [4] it was over 1000 nM.

On to `CC(C)c1cc(-c2cccc(F)c2)nn2cc(C(=O)N3CCNC(=O)C3(C)C)nc12` [Compound I-480], for which the IC50 in test [1] was 20 nM; in test [2], 60 nM; in test [3] it was over 1000 nM; in test [4], over 1000 nM.

For `Cc1nc(C(=O)N2CCN(C(=O)c3cn4nc(-c5ccc(F)cc5)cc(C(C)(C)C)c4n3)C(C)(C)C2)n(COP(=O)(O)O)n1` [Compound I-481], the 50% inhibitory concentration (IC50) in test [1] was 47.2 nM; in test [2] it was 44.5 nM; in test [3] it was over 1000 nM; in test [4], over 1000 nM.

On to `CC(C)c1cc(-c2ccc(F)c(Cl)c2)nn2cc(C(=O)N3CCN(C(=O)[C@H]4C[C@@](C)(O)C4)CC3(C)C)nc12` [Compound I-482], for which the IC50 in test [1] was 2.7 nM; in test [2], 2.7 nM; in test [3], 2700 nM; in test [4] it was 6350 nM.

`Cc1nc(C(=O)N2CCN(C(=O)c3cn4nc(-c5ccc(F)c(Cl)c5)cc(C(C)C)c4n3)C(C)(C)C2)n[nH]1` [Compound I-483]: the IC50 in test [1] is 2.5 nM; in test [2] it was 4.3 nM; in test [3], 6900 nM; in test [4], 6800 nM.

As to `Cc1nc(C(=O)N2CCN(C(=O)c3cn4nc(-c5ccc(F)cc5)cc(C(C)(C)C)c4n3)C(C)(C)C2)nn1COP(=O)(O)O` [Compound I-485], the IC50 in test [1] is 97 nM; in test [2], 235 nM; in test [3], over 1000 nM; in test [4], over 1000 nM.

For `CC(C)(C)c1cc(-c2ccc(F)c(Cl)c2)nn2cc(C(=O)N3CCN(C(=O)C4CC(C(=O)O)C4)CC3(C)C)nc12` (centres unmarked) [Compound I-486], the IC50 in test [1] stood at 1.7 nM; in test [2], 2.1 nM; in test [3] it was 4150 nM; in test [4], 2180 nM.

As to `CC(C)(C)c1cc(-c2ccc(F)c(Cl)c2)nn2cc(C(=O)N3CCN(C(=O)[C@H]4CC[C@@H](C(=O)O)CC4)CC3(C)C)nc12` [Compound I-487], the IC50 in test [1] was 0.3 nM; in test [2] it was 0.3 nM; in test [3] it was over 1000 nM; in test [4] it was over 1000 nM.

For `CC(C)(C)c1cc(-c2ccc(F)c(Cl)c2)nn2cc(C(=O)N3CCN(C(=O)[C@H]4CC[C@H](C(=O)O)CC4)CC3(C)C)nc12` [Compound I-488], the IC50 in test [1] is 4.2 nM; in test [2], 4.2 nM; in test [3] it was over 1000 nM; in test [4] it was over 1000 nM.

As to `CC(C)(C)c1cc(-c2ccc(Cl)cc2)nn2cc(C(=O)N3CCN(C(=O)C4CC(C(=O)O)C4)CC3(C)C)nc12` (centres unmarked) [Compound I-489], the IC50 in test [1] stood at 1 nM; in test [2] it was 0.9 nM; in test [3], 8600 nM; in test [4], 4100 nM.

As to `CC(C)(C)c1cc(-c2ccc(Cl)cc2)nn2cc(C(=O)N3CCN(C(=O)[C@H]4CC[C@@H](C(=O)O)CC4)CC3(C)C)nc12` [Compound I-490], the IC50 was 0.1 nM in test [1], 0.2 nM in test [2], over 1000 nM in test [3] and over 1000 nM in test [4].

For the compound `CC(C)(C)c1cc(-c2ccc(Cl)cc2)nn2cc(C(=O)N3CCN(C(=O)[C@H]4CC[C@H](C(=O)O)CC4)CC3(C)C)nc12` [Compound I-491], the IC50 in test [1] is 2.4 nM; in test [2] it was 3.2 nM; in test [3], over 1000 nM; in test [4], over 1000 nM.

Take `CC(C)(C)c1cc(-c2ccc(F)cc2)nn2cc(C(=O)N3CCN(C(=O)C4CC(C(=O)O)C4)CC3(C)C)nc12` (centres unmarked) [Compound I-492]: the IC50 in test [1] amounted to 4 nM; in test [2], 5.6 nM; in test [3], 820 nM; in test [4], 690 nM.
